Test results taken from ChEMBL document CHEMBL1201862, “PubChem BioAssay data set” (2004).
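Where inhibition never reached the appropriate level, the endpoint shown equals the highest concentration tested. Otherwise, values were interpolated linearly from a five-concentration, 48-hour dose response in 96-well plates. Here, GI50 denotes the concentration required for 50% inhibition of growth.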 Active and inactive are the calls of the source. No stated cut-off is given here; in the data, active = GI50 up to about 1.1 µM and inactive = higher.

Assays:
Assay in all cases: inhibition of tumour cell growth, NCI panel, 48 h
[1] = system: SK-MEL-28
[2] = system: LOX IMVI
[3] = system: COLO 205
[4] = system: HCC 2998
[5] = system: M14
[6] = system: SK-OV-3
[7] = system: SNB-19
[8] = system: ACHN
[9] = system: HCT-116
[10] = system: OVCAR-5
[11] = system: NCI-H522
[12] = system: EKVX
[13] = system: A549
[14] = system: T47D
[15] = system: BT-549
[16] = system: RPMI-8226
[17] = system: MOLT-4
[18] = system: HOP-92
[19] = system: SR

Row | SMILES | GI50 [1] | GI50 [2] | GI50 [3] | GI50 [4] | GI50 [5] | GI50 [6] | GI50 [7] | GI50 [8] | GI50 [9] | GI50 [10] | GI50 [11] | GI50 [12] | GI50 [13] | GI50 [14] | GI50 [15] | GI50 [16] | GI50 [17] | GI50 [18] | GI50 [19]
1 | O=C(O)c1cccc2cccc(-c3cccc4cccc(C(=O)O)c34)c12 | > 100 µM (inactive) | > 100 µM (inactive) | > 100 µM (inactive) | > 100 µM (inactive) | > 100 µM (inactive) | > 100 µM (inactive) | > 100 µM (inactive) | > 100 µM (inactive) | > 100 µM (inactive) | > 100 µM (inactive) | > 100 µM (inactive) | > 100 µM (inactive) | > 100 µM (inactive) | > 100 µM (inactive) | > 100 µM (inactive) | – | – | – | –
2 | O=S(=O)(c1ccc(Cl)cc1)c1ccccc1C1=NCCN1 | > 100 µM (inactive) | – | > 100 µM (inactive) | > 100 µM (inactive) | > 100 µM (inactive) | > 100 µM (inactive) | > 100 µM (inactive) | > 100 µM (inactive) | > 100 µM (inactive) | > 100 µM (inactive) | – | > 100 µM (inactive) | > 100 µM (inactive) | > 100 µM (inactive) | > 100 µM (inactive) | > 100 µM (inactive) | > 100 µM (inactive) | – | –
3 | COc1ccc(/C=N/NS(=O)(=O)c2ccc(/C=C3\NC(=O)NC3=O)cc2)cc1 | > 100 µM (inactive) | > 100 µM (inactive) | > 100 µM (inactive) | > 100 µM (inactive) | > 100 µM (inactive) | 73.5 µM (inactive) | 90.8 µM (inactive) | > 100 µM (inactive) | > 100 µM (inactive) | > 100 µM (inactive) | – | > 100 µM (inactive) | > 100 µM (inactive) | > 100 µM (inactive) | > 100 µM (inactive) | > 100 µM (inactive) | > 100 µM (inactive) | > 100 µM (inactive) | –
4 | COc1ccc2[nH]c3c(c2c1)CC(=O)N1CCCC(CC3O)C1 (stereo not drawn) | > 100 µM (inactive) | > 100 µM (inactive) | > 100 µM (inactive) | > 100 µM (inactive) | – | > 100 µM (inactive) | > 100 µM (inactive) | > 100 µM (inactive) | > 100 µM (inactive) | – | > 100 µM (inactive) | – | > 100 µM (inactive) | > 100 µM (inactive) | > 100 µM (inactive) | > 100 µM (inactive) | – | > 100 µM (inactive) | –
5 | N#CCCN(CCC#N)c1ccc(/C=C2\N=C(c3ccccc3)N(c3ccc(C(=O)O)cc3)C2=O)cc1 | 36 µM (inactive) | 30.9 µM (inactive) | 39 µM (inactive) | – | 72.1 µM (inactive) | > 100 µM (inactive) | 32.2 µM (inactive) | 42.5 µM (inactive) | 33.7 µM (inactive) | > 100 µM (inactive) | – | 26.2 µM (inactive) | > 100 µM (inactive) | 40.7 µM (inactive) | 24.4 µM (inactive) | 46.8 µM (inactive) | 0.641 µM (active) | 6.28 µM (inactive) | –
6 | O=C1/C(=N\n2c(S)nnc2-c2ccncc2)c2cc(Cl)ccc2N1CN1CCCCC1 | 65.3 µM (inactive) | 17.5 µM (inactive) | 41 µM (inactive) | – | 44.7 µM (inactive) | 39.5 µM (inactive) | 76 µM (inactive) | 50.4 µM (inactive) | 37.8 µM (inactive) | > 100 µM (inactive) | 13.7 µM (inactive) | 4.65 µM (inactive) | 53.2 µM (inactive) | 23.1 µM (inactive) | 25.9 µM (inactive) | – | 12.3 µM (inactive) | 56 µM (inactive) | –
7 | O=C(Nc1ccc(Cl)cc1C(F)(F)F)C(=O)Nn1c(S)nc2ccccc2c1=O | > 100 µM (inactive) | > 100 µM (inactive) | – | > 100 µM (inactive) | > 100 µM (inactive) | > 100 µM (inactive) | – | > 100 µM (inactive) | > 100 µM (inactive) | > 100 µM (inactive) | – | – | > 100 µM (inactive) | > 100 µM (inactive) | > 100 µM (inactive) | > 100 µM (inactive) | > 100 µM (inactive) | 3.99 µM (inactive) | –
8 | CNC(=O)OCC1=C(COC(=O)NC)C(C)N(c2ccc(OC)cc2)C1 (stereo not drawn) | > 100 µM (inactive) | > 100 µM (inactive) | 59 µM (inactive) | – | 69.5 µM (inactive) | > 100 µM (inactive) | > 100 µM (inactive) | 62.2 µM (inactive) | > 100 µM (inactive) | 24.1 µM (inactive) | – | > 100 µM (inactive) | > 100 µM (inactive) | 37.1 µM (inactive) | > 100 µM (inactive) | 58.6 µM (inactive) | 33.6 µM (inactive) | > 100 µM (inactive) | 15.7 µM (inactive)
9 | O=c1c2ccccc2nc2n1C(c1ccc([N+](=O)[O-])cc1)C2(c1ccccc1)c1ccccc1 (stereo not drawn) | > 100 µM (inactive) | > 100 µM (inactive) | 8.3 µM (inactive) | – | > 100 µM (inactive) | > 100 µM (inactive) | 14.5 µM (inactive) | > 100 µM (inactive) | > 100 µM (inactive) | > 100 µM (inactive) | > 100 µM (inactive) | > 100 µM (inactive) | 12.9 µM (inactive) | > 100 µM (inactive) | > 100 µM (inactive) | 8.2 µM (inactive) | 5.46 µM (inactive) | > 100 µM (inactive) | –
10 | CC1=C(C(=O)N(C)c2ccc(Cl)c(C(=O)OC(C)C)c2)SCCO1 | > 100 µM (inactive) | > 100 µM (inactive) | 70.8 µM (inactive) | > 100 µM (inactive) | > 100 µM (inactive) | > 100 µM (inactive) | 74.6 µM (inactive) | 61.5 µM (inactive) | 59.2 µM (inactive) | > 100 µM (inactive) | 44.9 µM (inactive) | 41.8 µM (inactive) | 90.2 µM (inactive) | 31.2 µM (inactive) | 40.9 µM (inactive) | 26.6 µM (inactive) | 38.5 µM (inactive) | > 100 µM (inactive) | –
11 | O=C1CCc2nc3ncccc3cc2C1 | > 100 µM (inactive) | – | > 100 µM (inactive) | > 100 µM (inactive) | > 100 µM (inactive) | > 100 µM (inactive) | > 100 µM (inactive) | > 100 µM (inactive) | 65.5 µM (inactive) | > 100 µM (inactive) | 22.2 µM (inactive) | > 100 µM (inactive) | > 100 µM (inactive) | > 100 µM (inactive) | > 100 µM (inactive) | 64.1 µM (inactive) | 29.9 µM (inactive) | > 100 µM (inactive) | –
12 | O=[N+]([O-])C(C(Cl)=C(Cl)Cl)=C(N(Cc1ccccc1)Cc1ccccc1)N(Cc1ccccc1)Cc1ccccc1 | > 100 µM (inactive) | 32.4 µM (inactive) | 57 µM (inactive) | 24 µM (inactive) | 34.8 µM (inactive) | 38.1 µM (inactive) | > 100 µM (inactive) | 82 µM (inactive) | 42.1 µM (inactive) | 30.2 µM (inactive) | > 100 µM (inactive) | 66.7 µM (inactive) | > 100 µM (inactive) | > 100 µM (inactive) | > 100 µM (inactive) | – | > 100 µM (inactive) | 15.6 µM (inactive) | –
